Test results as given in PubChem BioAssay AID1918994 (Molecular Pharmacology Branch, DTP, NCI, 2023).
One block for each compound: values may come before it.

Test system: 292921-168-R-J2-PDC complex spheroid growth
Experiment: Anticancer human tumor 292921-168-R-J2-PDC patient-derived pancreatic carcinoma cell line growth inhibition [AhR]
Details: for IC50: curve of first compound; for viability, T/C: stronger effect = lower value
Outline: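 Agents were dosed in half-log steps down from roughly clinical Cmax, or from 10 microM where Cmax was unknown, alone and with AhR antagonists. Read-out: percent test/control growth of tumor spheroids containing HUVEC and MSC stromal cells.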

[1] = second compound 0.1 µM, first compound 0.0316 µM
[2] = second compound 0.1 µM, first compound 0.1 µM
[3] = second compound 0.1 µM, first compound 0.316 µM
[4] = second compound 0.1 µM, first compound 1 µM
[5] = second compound 0.316 µM, first compound 0.0316 µM
[6] = second compound 0.316 µM, first compound 0.1 µM
[7] = second compound 0.316 µM, first compound 0.316 µM
[8] = second compound 0.316 µM, first compound 1 µM
[9] = second compound 1 µM, first compound 0.0316 µM
[10] = second compound 1 µM, first compound 0.1 µM
[11] = second compound 1 µM, first compound 0.316 µM
[12] = second compound 1 µM, first compound 1 µM
[13] = second compound 3.16 µM, first compound 0.0316 µM
[14] = second compound 3.16 µM, first compound 0.1 µM
[15] = second compound 3.16 µM, first compound 0.316 µM
[16] = second compound 3.16 µM, first compound 1 µM
[17] = second compound 10 µM, first compound 0.0316 µM
[18] = second compound 10 µM, first compound 0.1 µM
[19] = second compound 10 µM, first compound 0.316 µM
[20] = second compound 10 µM, first compound 1 µM
[21] = second compound 0.1 µM, first compound 3.16 µM
[22] = second compound 0.1 µM, first compound 10 µM
[23] = second compound 0.316 µM, first compound 3.16 µM
[24] = second compound 0.316 µM, first compound 10 µM
[25] = second compound 1 µM, first compound 3.16 µM
[26] = second compound 1 µM, first compound 10 µM
[27] = second compound 3.16 µM, first compound 3.16 µM
[28] = second compound 3.16 µM, first compound 10 µM
[29] = second compound 10 µM, first compound 3.16 µM
[30] = second compound 10 µM, first compound 10 µM
[31] = second compound 0.1 µM, first compound 0.00949 µM
[32] = second compound 0.1 µM, first compound 0.03 µM
[33] = second compound 0.1 µM, first compound 0.0949 µM
[34] = second compound 0.1 µM, first compound 0.3 µM
[35] = second compound 0.316 µM, first compound 0.00949 µM
[36] = second compound 0.316 µM, first compound 0.03 µM
[37] = second compound 0.316 µM, first compound 0.0949 µM
[38] = second compound 0.316 µM, first compound 0.3 µM
[39] = second compound 1 µM, first compound 0.00949 µM
[40] = second compound 1 µM, first compound 0.03 µM
[41] = second compound 1 µM, first compound 0.0949 µM
[42] = second compound 1 µM, first compound 0.3 µM
[43] = second compound 3.16 µM, first compound 0.00949 µM
[44] = second compound 3.16 µM, first compound 0.03 µM
[45] = second compound 3.16 µM, first compound 0.0949 µM
[46] = second compound 3.16 µM, first compound 0.3 µM
[47] = second compound 10 µM, first compound 0.00949 µM
[48] = second compound 10 µM, first compound 0.03 µM
[49] = second compound 10 µM, first compound 0.0949 µM
[50] = second compound 10 µM, first compound 0.3 µM
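Also: spheroids exposed to compounds for seven days after three days of growth.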

Compound: CC1COCCN1c1cc(C2(S(C)(=N)=O)CC2)nc(-c2ccnc3[nH]ccc23)n1 (stereo not given) + Cc1cncc(-c2nc(NCCc3c[nH]c4ccccc34)c3ncn(C(C)C)c3n2)c1
- IC50 (second compound 0.1 µM): 3610 nM
- IC50 (second compound 0.316 µM): 3000 nM
- IC50 (second compound 1 µM): 2580 nM
- IC50 (second compound 3.16 µM): 1940 nM
- IC50 (second compound 10 µM): 31.6 nM
- viability, T/C [1]: 89.8%
- viability, T/C [2]: 87.6%
- viability, T/C [3]: 95.8%
- viability, T/C [4]: 76.9%
- viability, T/C [21]: 54.2%
- viability, T/C [22]: 24.7%
- viability, T/C [5]: 86.5%
- viability, T/C [6]: 80.5%
- viability, T/C [7]: 73.3%
- viability, T/C [8]: 80.2%
- viability, T/C [23]: 48.6%
- viability, T/C [24]: 24.7%
- viability, T/C [9]: 77.2%
- viability, T/C [10]: 80.6%
- viability, T/C [11]: 88.4%
- viability, T/C [12]: 70%
- viability, T/C [25]: 45.9%
- viability, T/C [26]: 24.5%
- viability, T/C [13]: 63.3%
- viability, T/C [14]: 63.3%
- viability, T/C [15]: 66.9%
- viability, T/C [16]: 59.6%
- viability, T/C [27]: 42.6%
- viability, T/C [28]: 25.4%
- viability, T/C [17]: 48.6%
- viability, T/C [18]: 45.9%
- viability, T/C [19]: 50%
- viability, T/C [20]: 50.4%
- viability, T/C [29]: 38.8%
- viability, T/C [30]: 29.4%

Compound: COc1ccc([C@@H](O)c2cc(-c3ncnc4cc(N5CCOCC5)ccc34)c(F)cc2Cl)nn1 + Cc1cncc(-c2nc(NCCc3c[nH]c4ccccc34)c3ncn(C(C)C)c3n2)c1
- IC50 (second compound 0.1 µM): 2030 nM
- IC50 (second compound 0.316 µM): 1630 nM
- IC50 (second compound 1 µM): 1390 nM
- IC50 (second compound 3.16 µM): 607 nM
- IC50 (second compound 10 µM): < 31.6 nM
- viability, T/C [1]: 81.6%
- viability, T/C [2]: 85.2%
- viability, T/C [3]: 68.8%
- viability, T/C [4]: 67.2%
- viability, T/C [21]: 39.9%
- viability, T/C [22]: 25.8%
- viability, T/C [5]: 80.6%
- viability, T/C [6]: 78.2%
- viability, T/C [7]: 81%
- viability, T/C [8]: 59.7%
- viability, T/C [23]: 36.3%
- viability, T/C [24]: 26.2%
- viability, T/C [9]: 77.7%
- viability, T/C [10]: 79%
- viability, T/C [11]: 62.4%
- viability, T/C [12]: 58.7%
- viability, T/C [25]: 36.3%
- viability, T/C [26]: 26%
- viability, T/C [13]: 67.1%
- viability, T/C [14]: 58.5%
- viability, T/C [15]: 63.7%
- viability, T/C [16]: 40.2%
- viability, T/C [27]: 32.7%
- viability, T/C [28]: 23.1%
- viability, T/C [17]: 42.7%
- viability, T/C [18]: 39.5%
- viability, T/C [19]: 42.2%
- viability, T/C [20]: 32.3%
- viability, T/C [29]: 25.2%
- viability, T/C [30]: 20.5%

Compound: Nc1ncn(C2CC(O)C(CO)S2)c(=O)n1 (stereo not given) + Cc1cncc(-c2nc(NCCc3c[nH]c4ccccc34)c3ncn(C(C)C)c3n2)c1
- IC50 (second compound 0.1 µM): > 300 nM
- IC50 (second compound 0.316 µM): > 300 nM
- IC50 (second compound 1 µM): > 300 nM
- IC50 (second compound 3.16 µM): > 300 nM
- IC50 (second compound 10 µM): 91.3 nM
- viability, T/C (second compound 0.1 µM, first compound 0.000949 µM): 94.8%
- viability, T/C (second compound 0.1 µM, first compound 0.003 µM): 92.2%
- viability, T/C [31]: 91.3%
- viability, T/C [32]: 92.6%
- viability, T/C [33]: 87%
- viability, T/C [34]: 89.9%
- viability, T/C (second compound 0.316 µM, first compound 0.000949 µM): 91%
- viability, T/C (second compound 0.316 µM, first compound 0.003 µM): 85.9%
- viability, T/C [35]: 88.2%
- viability, T/C [36]: 98.2%
- viability, T/C [37]: 88.2%
- viability, T/C [38]: 92.7%
- viability, T/C (second compound 1 µM, first compound 0.000949 µM): 71.9%
- viability, T/C (second compound 1 µM, first compound 0.003 µM): 74%
- viability, T/C [39]: 69.7%
- viability, T/C [40]: 75.1%
- viability, T/C [41]: 82.4%
- viability, T/C [42]: 82.9%
- viability, T/C (second compound 3.16 µM, first compound 0.000949 µM): 52.2%
- viability, T/C (second compound 3.16 µM, first compound 0.003 µM): 55.5%
- viability, T/C [43]: 59.5%
- viability, T/C [44]: 47.3%
- viability, T/C [45]: 50%
- viability, T/C [46]: 57.8%
- viability, T/C (second compound 10 µM, first compound 0.000949 µM): 50.1%
- viability, T/C (second compound 10 µM, first compound 0.003 µM): 48.8%
- viability, T/C [47]: 54.6%
- viability, T/C [48]: 50%
- viability, T/C [49]: 50.2%
- viability, T/C [50]: 48.4%

Stronger by IC50 (second compound 0.1 µM), values ahead:

- IC50 (second compound 0.1 µM): 48 nM
- IC50 (second compound 0.316 µM): 43.4 nM
- IC50 (second compound 1 µM): 40.8 nM
- IC50 (second compound 3.16 µM): 32.1 nM
- IC50 (second compound 10 µM): < 3.16 nM
Compound: CC1COCCN1c1cc(-c2ccnn2C)c2ccnc(-c3ccn[nH]3)c2n1 (stereo not given) + Cc1cncc(-c2nc(NCCc3c[nH]c4ccccc34)c3ncn(C(C)C)c3n2)c1
- viability, T/C (second compound 0.1 µM, first compound 0.00316 µM): 87.5%
- viability, T/C (second compound 0.1 µM, first compound 0.01 µM): 82.6%
- viability, T/C [1]: 60%
- viability, T/C [2]: 31.8%
- viability, T/C [3]: 22.5%
- viability, T/C [4]: 18.1%
- viability, T/C (second compound 0.316 µM, first compound 0.00316 µM): 88.3%
- viability, T/C (second compound 0.316 µM, first compound 0.01 µM): 78.6%
- viability, T/C [5]: 56.8%
- viability, T/C [6]: 32.7%
- viability, T/C [7]: 18.7%
- viability, T/C [8]: 17%
- viability, T/C (second compound 1 µM, first compound 0.00316 µM): 74.5%
- viability, T/C (second compound 1 µM, first compound 0.01 µM): 73%
- viability, T/C [9]: 55.2%
- viability, T/C [10]: 30%
- viability, T/C [11]: 18.7%
- viability, T/C [12]: 17.1%
- viability, T/C (second compound 3.16 µM, first compound 0.00316 µM): 60.3%
- viability, T/C (second compound 3.16 µM, first compound 0.01 µM): 64.1%
- viability, T/C [13]: 49.7%
- viability, T/C [14]: 25.4%
- viability, T/C [15]: 17.9%
- viability, T/C [16]: 17.9%
- viability, T/C (second compound 10 µM, first compound 0.00316 µM): 41%
- viability, T/C (second compound 10 µM, first compound 0.01 µM): 48.1%
- viability, T/C [17]: 44.9%
- viability, T/C [18]: 33.2%
- viability, T/C [19]: 25.8%
- viability, T/C [20]: 22.2%

- IC50 (second compound 0.1 µM): 179 nM
- IC50 (second compound 0.316 µM): 165 nM
- IC50 (second compound 1 µM): 194 nM
- IC50 (second compound 3.16 µM): 108 nM
- IC50 (second compound 10 µM): 107 nM
Compound: O=C(C=Cn1cnc(-c2cc(C(F)(F)F)cc(C(F)(F)F)c2)n1)NNc1cnccn1 + Cc1cncc(-c2nc(NCCc3c[nH]c4ccccc34)c3ncn(C(C)C)c3n2)c1
- viability, T/C [31]: 90.8%
- viability, T/C [32]: 85.3%
- viability, T/C [33]: 62.6%
- viability, T/C [34]: 39.1%
- viability, T/C (second compound 0.1 µM, first compound 0.949 µM): 23%
- viability, T/C (second compound 0.1 µM, first compound 3 µM): 15.2%
- viability, T/C [35]: 91.9%
- viability, T/C [36]: 86.2%
- viability, T/C [37]: 62.1%
- viability, T/C [38]: 36.2%
- viability, T/C (second compound 0.316 µM, first compound 0.949 µM): 21.2%
- viability, T/C (second compound 0.316 µM, first compound 3 µM): 16.2%
- viability, T/C [39]: 91%
- viability, T/C [40]: 80.2%
- viability, T/C [41]: 62.4%
- viability, T/C [42]: 42.5%
- viability, T/C (second compound 1 µM, first compound 0.949 µM): 24.6%
- viability, T/C (second compound 1 µM, first compound 3 µM): 13.1%
- viability, T/C [43]: 83.6%
- viability, T/C [44]: 71%
- viability, T/C [45]: 51.5%
- viability, T/C [46]: 35.2%
- viability, T/C (second compound 3.16 µM, first compound 0.949 µM): 21.9%
- viability, T/C (second compound 3.16 µM, first compound 3 µM): 18.9%
- viability, T/C [47]: 54.4%
- viability, T/C [48]: 58.1%
- viability, T/C [49]: 51.2%
- viability, T/C [50]: 38.7%
- viability, T/C (second compound 10 µM, first compound 0.949 µM): 35.5%
- viability, T/C (second compound 10 µM, first compound 3 µM): 29.1%
